The record followed here is US20250129068A1 (IP2IPO INNOVATIONS LIMITED, priority 2021, published 2025).

The target in this test is full-length human GCN2 enzyme (Homo sapiens (Human), UniProt Q9P2K8). As to the kind of experiment: GCN2 enzyme inhibition, LanthaScreen TR-FRET Kinase Activity assay. The test is classed as biochemical. To be noted: 10 μM ATP; mean of 1 to 3 replicate assays. On the procedure: The inhibitory activity of the Example compounds towards GCN2 enzyme was measured according to the description below, using a LanthaScreen TR-FRET (Time Resolved Fluorescence Resonance Energy Transfer) Kinase Activity assay distributed by ThermoFisher Scientific.
full-length human GCN2 enzyme, sequence (Q9P2K8 whole entry): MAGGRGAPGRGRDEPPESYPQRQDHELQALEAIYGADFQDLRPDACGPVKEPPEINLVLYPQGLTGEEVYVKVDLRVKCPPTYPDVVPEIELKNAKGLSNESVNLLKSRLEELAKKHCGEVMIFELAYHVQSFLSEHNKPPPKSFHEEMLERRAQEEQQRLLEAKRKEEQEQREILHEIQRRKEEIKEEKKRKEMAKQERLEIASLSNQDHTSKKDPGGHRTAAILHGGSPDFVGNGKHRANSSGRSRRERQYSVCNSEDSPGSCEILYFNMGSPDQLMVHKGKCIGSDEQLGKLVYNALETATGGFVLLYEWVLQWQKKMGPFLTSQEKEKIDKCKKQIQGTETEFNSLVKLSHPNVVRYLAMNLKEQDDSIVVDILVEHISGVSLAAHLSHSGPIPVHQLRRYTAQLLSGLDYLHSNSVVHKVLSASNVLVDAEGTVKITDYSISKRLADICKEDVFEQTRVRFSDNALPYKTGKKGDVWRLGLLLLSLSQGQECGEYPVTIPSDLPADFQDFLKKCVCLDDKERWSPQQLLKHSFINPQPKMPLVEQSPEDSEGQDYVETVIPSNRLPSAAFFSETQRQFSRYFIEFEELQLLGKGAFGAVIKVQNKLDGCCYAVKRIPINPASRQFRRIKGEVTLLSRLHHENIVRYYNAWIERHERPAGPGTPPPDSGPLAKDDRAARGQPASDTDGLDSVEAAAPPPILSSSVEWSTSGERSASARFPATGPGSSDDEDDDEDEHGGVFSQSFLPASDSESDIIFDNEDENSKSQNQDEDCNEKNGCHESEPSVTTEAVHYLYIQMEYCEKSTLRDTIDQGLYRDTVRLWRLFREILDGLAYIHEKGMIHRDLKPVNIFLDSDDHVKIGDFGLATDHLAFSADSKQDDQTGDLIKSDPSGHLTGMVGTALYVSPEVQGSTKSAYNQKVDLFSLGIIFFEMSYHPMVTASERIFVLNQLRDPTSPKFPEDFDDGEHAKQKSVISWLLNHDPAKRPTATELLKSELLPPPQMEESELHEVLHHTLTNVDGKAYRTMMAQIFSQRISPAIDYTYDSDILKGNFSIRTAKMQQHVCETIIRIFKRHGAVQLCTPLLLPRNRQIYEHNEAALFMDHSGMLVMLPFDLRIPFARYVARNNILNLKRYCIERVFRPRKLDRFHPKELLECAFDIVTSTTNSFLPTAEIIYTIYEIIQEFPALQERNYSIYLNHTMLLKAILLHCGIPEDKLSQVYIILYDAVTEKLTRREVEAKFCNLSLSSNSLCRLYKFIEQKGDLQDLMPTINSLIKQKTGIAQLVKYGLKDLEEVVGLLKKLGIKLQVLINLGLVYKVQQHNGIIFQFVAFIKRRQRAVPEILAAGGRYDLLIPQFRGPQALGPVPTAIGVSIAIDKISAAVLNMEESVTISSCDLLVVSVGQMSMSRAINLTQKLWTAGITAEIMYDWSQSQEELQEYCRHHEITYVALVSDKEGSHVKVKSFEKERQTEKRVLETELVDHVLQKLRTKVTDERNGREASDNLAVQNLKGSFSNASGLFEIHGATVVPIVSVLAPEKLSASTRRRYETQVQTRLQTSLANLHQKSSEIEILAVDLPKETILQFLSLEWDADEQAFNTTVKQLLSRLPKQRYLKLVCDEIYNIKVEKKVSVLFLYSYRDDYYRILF
The full-length human GCN2 enzyme (UniProt accession number Q9P2K8) was used for all experiments (Carna Bioscience). The TR-FRET pair was composed of GFP-elF2a and LanthaScreen Terbium-labeled anti-pelF2a (pSer52) Antibody.
Each example compound was dissolved in DMSO (0.15 mM) and dispensed in a 384-well plate by a D300 dispenser (Tecan) to a final concentration range 3000-0.13 nM using the logarithmic dilution mode in 2 replicates. Full inhibition (3000 nM commercial reference inhibitor) and DMSO vehicle control wells were also included on the same plate. All volumes were normalized to the final DMSO concentration of 2% of the reaction volume. Next, 5 μL of H2O was added to each well of the plate.
The enzyme mixture was prepared to obtain the following concentrations: • GCN2—30 nM • unloaded tRNA—0.3 nM • HEPES (pH=7.0)—100 mM • MgCl2—20 mM; MnCl2—10 mM
The mixture was applied by adding 5 μL to each well of the plate. The enzyme and the tested compound were then incubated at room temperature for 20 min while shaking at 450 rpm.
The substrate mixture was prepared to obtain the following concentrations: • GFP-elF2α—240 nM • ATP-30 PM • HEPES (pH=7.0)—50 mM • MgCl2—10 mM • MnCl2—5 mM.
The mixture was applied by adding 5 μL to each well of the plate. Thus, the final concentrations of the 15 μL reaction mixture were as follows: • GCN2—10 nM • unloaded tRNA—0.1 nM • GFP-elF2α—80 nM • ATP-10 μM • HEPES (1 M, pH=7.0)—50 mM • MgCl2—10 mM • MnCl2—5 mM.
The reaction was allowed to proceed at room temperature for 30 min while shaking at 450 rpm.
The antibody mixture was prepared to obtain the following concentrations: • Na2EDTA·2H2O—40 mM, in TR-FRET Dilution Buffer (Life technologies) • Tb-anti-pelF2a antibodies—4 nM.
The mixture was applied by adding 15 μL to each well. The plate was then incubated at room temperature for 60 min while shaking at 450 rpm and then read using Tecan Spark reader using specific TR-FRET filters.
The analysis of the GFP/Tb fluorescence results was conducted with GraphPad Prism to determine IC50 for each of the example compounds using 4-parameter model: log (inhibitor) vs. response-variable slope. IC50 and Ki values were calculated in the usual way. The assay was carried out between 1 and 3 times. The results in the table below are the mean results from replicate assays for the compound in question, where applicable.
In general terms: Time-resolved FRET reads energy transfer from a long-lived donor to a nearby acceptor.
By Ki is commonly meant the dissociation constant of the complex between target and ligand, obtained from inhibition or displacement. Low values mean tighter binding, high ones weaker binding. For the molecule `O=S(=O)(Nc1nccc(C#Cc2cnc3[nH]ncc3c2)c1F)c1ccc(Cl)cc1CO` [Example 19], the Ki came to 65 nM. For `COc1ncc(C)cc1S(=O)(=O)Nc1nccc(C#Cc2cnc3[nH]ncc3c2)c1F` [Example 9, N-[3-Fluoro-4-(2-{1H-pyrazolo[3,4-b]pyridin-5-yl}ethynyl)pyridin-2-yl]-2-methoxy-5-methyl-pyridine-3-sulfonamide] the value was 6.6 nM; for `CCOc1ncc(Cl)cc1S(=O)(=O)Nc1nccc(C#Cc2cnc3[nH]ncc3c2)c1F` [Example 18, 5-Chloro-2-ethoxy-N-[3-fluoro-4-(2-{1H-pyrazolo[3,4-b]pyridin-5-yl}ethynyl)-pyridin-2-yl]pyridine-3-sulfonamide], 8.83 nM. The same measure for `Cc1ncc(F)cc1S(=O)(=O)Nc1nccc(C#Cc2cnc3[nH]ncc3c2)c1F` [Example 16, 5-Fluoro-N-[3-fluoro-4-(2-{1H-pyrazolo[3,4-b]pyridin-5-yl}ethynyl)pyridin-2-yl]-2-methylpyridine-3-sulfonamide]: 4.19 nM. Molecule `N#Cc1cccc(S(=O)(=O)Nc2nccc(C#Cc3cnc4[nH]ncc4c3)c2F)c1` [Example 2, 3-Cyano-N-[3-fluoro-4-(2-{1H-pyrazolo[3,4-b]pyridin-5-yl}ethynyl)pyridin-2-yl]benzene-1-sulfonamide] returned a Ki of 107 nM. The same measure for `COc1cccc(S(=O)(=O)Nc2nccc(C#Cc3cnc4[nH]ncc4c3)c2F)c1` [Example 3]: 128 nM; for `COc1ncc(C#N)cc1S(=O)(=O)Nc1nccc(C#Cc2cnc3[nH]ncc3c2)c1F` [Example 12, 5-Cyano-N-[3-fluoro-4-(2-{1H-pyrazolo[3,4-b]pyridin-5-yl}ethynyl)pyridin-2-yl]-2-methoxypyridine-3-sulfonamide]: 7.76 nM. For `Cc1ccc(S(=O)(=O)Nc2nccc(C#Cc3cnc4[nH]ncc4c3)c2F)c(C)n1` [Example 14, N-[3-Fluoro-4-(2-{1H-pyrazolo[3,4-b]pyridin-5-yl}ethynyl)pyridin-2-yl]-2,6-dimethylpyridine-3-sulfonamide] the value was 17.8 nM; for `Cc1ncc(Cl)cc1S(=O)(=O)Nc1nccc(C#Cc2cnc3[nH]ncc3c2)c1F` [Example 4, 5-Chloro-N-[3-fluoro-4-(2-{1H-pyrazolo[3,4-b]pyridin-5-yl}ethynyl)pyridin-2-yl]-2-methylpyridine-3-sulfonamide], 2.49 nM. For `Cc1nc(C)c(S(=O)(=O)Nc2nccc(C#Cc3cnc4[nH]ncc4c3)c2F)s1` [Example 6, N-[3-Fluoro-4-(2-{1H-pyrazolo[3,4-b]pyridin-5-yl}ethynyl)pyridin-2-yl]-2,4-dimethyl-1,3-thiazole-5-sulfonamide] the value was 29.3 nM. Turning to `COc1ncccc1S(=O)(=O)Nc1nccc(C#Cc2cnc3[nH]ncc3c2)c1F` [Example 8, N-[3-Fluoro-4-(2-{1H-pyrazolo[3,4-b]pyridin-5-yl}ethynyl)pyridin-2-yl]-2-methoxypyridine-3-sulfonamide], the affinity, expressed as Ki, was 59.9 nM.

`COc1cccc(S(=O)(=O)Nc2nccc(C#Cc3cnc4[nH]ncc4c3)c2F)c1F` [Example 1, 2-Fluoro-N-[3-fluoro-4-(2-{1H-pyrazolo[3,4-b]pyridin-5-yl}ethynyl)pyridin-2-yl]-3-methoxybenzene-1-sulfonamide] came in with a Ki of 172 nM. The molecule `O=S(=O)(Nc1nccc(C#Cc2cnc3[nH]ncc3c2)c1F)c1cccc2c1OCO2` [Example 10, N-[3-Fluoro-4-(2-{1H-pyrazolo[3,4-b]pyridin-5-yl}ethynyl)pyridin-2-yl]-2H-1,3-benzodioxole-4-sulfonamide] had a Ki of 209 nM.

Turning to `O=S(=O)(Nc1nccc(C#Cc2cnc3[nH]ncc3c2)c1F)c1cc(Cl)cnc1CCO` [Example 20, 5-chloro-N-[3-fluoro-4-(2-{1H-pyrazolo[3,4-b]pyridin-5-yl}ethynyl)pyridin-2-yl]-2-(2-hydroxyethyl)pyridine-3-sulfonamide], the affinity corresponds to a Ki of 67 nM. This Ki is about 3.1-fold lower than that of the molecule before.

Molecule `Cc1cnc(C)c(S(=O)(=O)Nc2nccc(C#Cc3cnc4[nH]ncc4c3)c2F)c1` [Example 11, N-[3-Fluoro-4-(2-{1H-pyrazolo[3,4-b]pyridin-5-yl}ethynyl)pyridin-2-yl]-2,5-dimethylpyridine-3-sulfonamide] displayed a Ki of 8.17 nM. This Ki lies about 8.2-fold lower than the previous one. The same measure for `COc1ncc(C(F)(F)F)cc1S(=O)(=O)Nc1nccc(C#Cc2cnc3[nH]ncc3c2)c1F` [Example 5, N-[3-Fluoro-4-(2-{1H-pyrazolo[3,4-b]pyridin-5-yl}ethynyl)pyridin-2-yl]-2-methoxy-5-(trifluoromethyl)pyridine-3-sulfonamide]: 5.78 nM; for `O=S(=O)(Nc1nccc(C#Cc2cnc3[nH]ncc3c2)c1F)c1cncc(Cl)c1` [Example 7, 5-Chloro-N-[3-fluoro-4-(2-{1H-pyrazolo[3,4-b]pyridin-5-yl}ethynyl)pyridin-2-yl]pyridine-3-sulfonamide]: 127 nM.
